The text below walks through data of patent US7989482B2, “Indoline anti-cancer agents” (Joyant Pharmaceuticals, Inc., priority 2008, dated 2011).

Data set [1] relates to COLO205. As to the kind of experiment: Cell profiling, COLO205 tumor cell line. In kind it is cell-based. Conditions: Homo sapiens, COLO 205; Tumor cell line COLO205, origin Colon. The protocol: (§1) Cell viability assays were run using standard protocols known to those of skill in art. Cells were plated in 96 well plates at the density of 3,000-10,000 cells per well. Twenty four hours later, cells were treated with increasing concentration of test compounds (1 nM to 1 μM). After another 48 hour, cell survival was measured using CELL-TITER-GLO® reagent (Promega) following the protocol provided by the manufacture. The IC50 value was determined as the concentration of test compound that kills 50% of the cell population.
(§2) The compound of Example 46 was profiled in tumor cell lines derived from a variety of origins.

Data set [2] relates to BT474. As to the kind of experiment: Cell profiling, BT474 tumor cell line. Conditions: Homo sapiens, BT-474; Tumor cell line BT474, origin Breast. In kind it is cell-based. The protocol:
as §1, §2

The test system of data set [3] is U937 cells. Kind of data set: Cell viability assay (CELL-TITER-GLO) in U937 cells. The format is cell-based. Conditions: Homo sapiens. The protocol: as §1
(§3) Cell viability data generated according to the protocol described in Example 97 was generated for representative compounds in A2058 and U937 cells.

Data set [4] concerns HCC461. Kind of data set: Cell profiling, HCC461 tumor cell line. The format is cell-based. Conditions: Tumor cell line HCC461, origin Lung. The protocol:
as §1, §2

The test system of data set [5] is DU145. As to the kind of experiment: Cell profiling, DU145 tumor cell line. The format is cell-based. The conditions noted are these: Homo sapiens, DU-145; Tumor cell line DU145, origin Prostate. The protocol:
as §1, §2

The test system of data set [6] is BxPC3. Kind of data set: Cell profiling, BxPC3 tumor cell line. In kind it is cell-based. The conditions noted are these: Homo sapiens, BXPC-3; Tumor cell line BxPC3, origin Pancreas. The protocol:
as §1, §2

Data set [7] relates to HCT116. As to the kind of experiment: Cell profiling, HCT116 tumor cell line. The format is cell-based. Conditions: Homo sapiens, HCT-116; Tumor cell line HCT116, origin Colon. The protocol:
as §1, §2

In data set [8] the test system is LOVO. Kind of data set: Cell profiling, LOVO tumor cell line. In kind it is cell-based. The conditions noted are these: Homo sapiens, origin Colon. The protocol: as §1, §2
Data set [9] relates to HT29. Kind of data set: Cell profiling, HT29 tumor cell line. In kind it is cell-based. Conditions: Homo sapiens, HT-29; Tumor cell line HT29, origin Colon. The protocol:
as §1, §2

Data set [10] has as its system A2058 cells. As to the kind of experiment: Cell viability assay (CELL-TITER-GLO) in A2058 cells. The format is cell-based. The conditions noted are these: Homo sapiens. The protocol:
as §1, §3

Data set [11] concerns OVCAR 3. As to the kind of experiment: Cell profiling, OVCAR 3 tumor cell line. In kind it is cell-based. Conditions: Homo sapiens; Tumor cell line OVCAR 3, origin Ovarian. The protocol:
as §1, §2

Data set [12] has as its system HCC1437. As to the kind of experiment: Cell profiling, HCC1437 tumor cell line. The format is cell-based. The conditions noted are these: Tumor cell line HCC1437, origin Lung. The protocol:
as §1, §2

The test system of data set [13] is A375. Kind of data set: Cell profiling, A375 tumor cell line. The format is cell-based. Conditions: Homo sapiens, A-375; Tumor cell line A375, origin Skin. The protocol:
as §1, §2

Data set [14] has as its system NCI-H460. As to the kind of experiment: Cell profiling, NCI-H460 tumor cell line. The format is cell-based. The conditions noted are these: Homo sapiens; Tumor cell line NCI-H460, origin Lung. The protocol:
as §1, §2

For data set [15], the system named is HCT116 human colon carcinoma xenograft. As to the kind of experiment: HCT116 human colon carcinoma xenograft model in mice. The format is in vivo. Conditions: 20 mg/kg per dose intravenously, days 9, 11, 14, 16, 18 and 21 post tumor cell injection. The protocol: Compound of Example 73 was administered at 20 mg/kg per dose. Injections were given at days 9, 11, 14, 16, 18 and 21 post tumor cell injection.
The compound of Example 73 was tested in HCT116 human colon carcinoma xenograft and Miapaca pancreatic cancer xenograft tumor models in 5- to 6-week-old Harlan Athymic Nude-Foxnlnu mice.
Preparation of Tumor Cells • 1. Tumor cells were cultured in complete RPMI medium and excluded any contamination • 2. When cells are 70-80% confluent, medium was removed and cells were washed with serum free media, trypsinized, harvested and washed with serum free media for three times by centrifuge. After final washing, cells were counted and mixed with matrigel at 1:1 ration in volume. Cells were suspended in a volume that 200 μl contains required number of cells per injection.
Preparation of the Injection • 1. Clean and sterilize the inoculation area of the mice with iodine solutions and ethanol. • 2. Take cells with 1-cc syringe. • 3. Inject tumor cells (1×10^7) subcutaneously (s.c.) into the lower flank of the mice. • 4. When tumors reached 200-300 mm^3 in size, mice were randomized into treatment groups of five mice per group. • 5. Mice were weighed and tumors measured using vernier calipers two times per week. Tumor volume in mm3 is calculated by the formula: Volume (mm^3)=(length×width^2)/2. […]

Where [16] appears, read: U-937, 48 h, U937 cells, 48 hour treatment, cell viability, read-out: IC50 (μM) U937.
Where [17] appears, read: A2058, 48 h, A2058 cells, 48 hour treatment, cell viability, read-out: IC50 (μM) A2058.
[18] abbreviates: U-937, U937 cells, 48 hour treatment, cell viability, read-out: IC50 (μM) U937.
Setting [19] is: A2058 cells, 48 hour treatment, cell viability, read-out: IC50 (μM) A2058.

The structures appear in SMILES notation. Where two headings read alike, the source gives them in different places.

What is called IC50 is the concentration that gives 50% inhibition. For the compound `COC(=O)c1coc(-c2nc3oc2C24c5ccccc5N[C@H]2Oc2ccc(cc24)C[C@H](NC(=O)[C@@H](O)C(C)C)C(=O)N[C@H]3C(C)C)n1` (stereo partly drawn) [Example 46], the IC50 in [1] is 0.147 µM; in data set [2], 0.006 µM; in data set [3] (setting [16]), 0.013 µM; in [3] (U-937, Tumor cell line U937, origin Blood, read-out: IC50), 0.013 µM; in [4] it was 0.344 µM; in data set [5] it was 0.067 µM. Moreover, the half-maximal inhibitory concentration (IC50) in data set [6] turned out to be 0.023 µM; in [7], 0.731 µM; in data set [8], 0.148 µM; in data set [9], 0.09 µM; in data set [10] (setting [17]) it was 0.044 µM; in [10] (A2058, Tumor cell line A2058, origin Skin, read-out: IC50) it was 0.044 µM. The IC50 in [11] came to 0.032 µM; in data set [12] it was 0.063 µM; in data set [13] it was 0.099 µM; in data set [14], 0.245 µM.

On to `CC(C)[C@H](O)C(=O)N[C@H]1Cc2ccc3c(c2)C2(C4=C(c5nc(CO)co5)N=C(O4)[C@H](C(C)C)NC1=O)c1ccccc1N[C@H]2O3` (stereo partly drawn) [Example 73], for which the IC50 in [3] (setting [16]) was found to be 0.037 µM; in data set [10] (setting [17]) it was 0.093 µM. Also, in data set [15], the maximum weight loss was 7.9%. For the same compound, the “tumor size for treated animals, % of control” value in data set [15] (day 25) was 34.5 % of control.

With `CC(C)OC(=O)c1coc(-c2nc3oc2C24c5ccccc5N[C@H]2Oc2ccc(cc24)C[C@H](NC(=O)[C@@H](O)C(C)C)C(=O)N[C@H]3C(C)C)n1` (stereo partly drawn) [Example 81], the IC50 in data set [3] (setting [16]) came out at 0.0014 µM; in data set [10] (setting [17]), 0.006 µM.

Turning to `CC(C)[C@H](O)C(=O)N[C@H]1Cc2ccc3c(c2)C2(C4=C(c5nc(C(=O)OC(C)(C)C)co5)N=C(O4)[C@H](C(C)C)NC1=O)c1ccccc1N[C@H]2O3` (stereo partly drawn) [Example 82], the IC50 in data set [3] (setting [16]) was found to be 0.066 µM; in data set [10] (setting [17]), 0.126 µM.

As to `CC(C)[C@H](O)C(=O)N[C@H]1Cc2ccc3c(c2)C2(C4=C(c5cnco5)N=C(O4)[C@H](C(C)C)NC1=O)c1ccccc1N[C@H]2O3` (stereo partly drawn) [Example 83], the IC50 in [3] (setting [16]) worked out at 0.252 µM; in data set [10] (setting [17]), 0.433 µM.

In the case of `CCC(O)(CC)C(=O)N[C@H]1Cc2ccc3c(c2)C2(C4=C(c5cnco5)N=C(O4)[C@H](C(C)C)NC1=O)c1ccccc1N[C@H]2O3` (stereo partly drawn) [Example 84], the values for the IC50 in data set [3] (setting [16]) and in data set [10] (setting [17]) were 0.315 µM and 0.487 µM, respectively.

On to `CC(C)[C@H](O)C(=O)N[C@H]1Cc2ccc3c(c2)C2(C4=C(c5ncc[nH]5)N=C(O4)[C@H](C(C)C)NC1=O)c1ccccc1N[C@H]2O3` (stereo partly drawn) [Example 85], for which the IC50 was 0.234 µM in data set [3] (setting [16]) and 0.337 µM in [10] (setting [17]).

As to `CC(C)[C@H](O)C(=O)N[C@H]1Cc2ccc3c(c2)C2(C4=C(c5nc(C#N)c(N)o5)N=C(O4)[C@H](C(C)C)NC1=O)c1ccccc1N[C@H]2O3` (stereo partly drawn) [Example 86], the IC50 in [3] (setting [16]) amounted to 0.064 µM; in data set [10] (setting [17]), 0.179 µM.

Regarding `Cc1noc(-c2nc3oc2C24c5ccccc5N[C@H]2Oc2ccc(cc24)C[C@H](NC(=O)[C@@H](O)C(C)C)C(=O)N[C@H]3C(C)C)n1` (stereo partly drawn) [Example 87], the IC50 was 0.164 µM in data set [3] (setting [16]) and 0.479 µM in [10] (setting [17]).

Consider `CCOC(=O)c1noc(-c2nc3oc2C24c5ccccc5N[C@H]2Oc2ccc(cc24)C[C@H](NC(=O)[C@@H](O)C(C)C)C(=O)N[C@H]3C(C)C)n1` (stereo partly drawn) [Example 88], for which the results for the IC50 in data set [3] (setting [16]) and in data set [10] (setting [17]) were 0.7 µM and above 1 µM, respectively.

`COC(=O)c1nc([C@@H](NC(=O)[C@H](Cc2ccc(O)cc2)NC(=O)[C@@H](O)C(C)C)C(C)C)oc1-c1c[nH]c2ccccc12` [Example 89]: the IC50 in data set [3] (setting [18]) and in [10] (setting [19]) was above 1 µM throughout.

For `CC(C)[C@H](O)C(=O)N[C@H]1Cc2ccc3c(c2)C2(C4=C(c5ncc(-c6c[nH]c7c(O)cccc67)o5)N=C(O4)[C@H](C(C)C)NC1=O)c1ccccc1N[C@H]2O3` (stereo partly drawn) [Example 90], the IC50 is above 1 µM in [3] (setting [16]) and 0.994 µM in data set [10] (setting [17]).

Consider `CC(C)[C@H](O)C(=O)N[C@H]1Cc2ccc3c(c2)C2(C4=C(c5ncc(-c6c[nH]c7ccccc67)o5)N=C(O4)[C@H](C(C)C)NC1=O)c1ccccc1N[C@H]2O3` (stereo partly drawn) [Example 91], for which the IC50 in [3] (setting [16]) is 0.579 µM; in data set [10] (setting [17]) it was 0.475 µM.

Take `COC(=O)c1nc2oc1[C@@]13c4cc(Cl)ccc4NC1Oc1ccc(cc13)C[C@H](NC(=O)[C@@H](O)C(C)C)C(=O)N[C@H]2C(C)C` (stereo partly drawn) [Example 93]: the IC50 in [3] (setting [16]) and in data set [10] (setting [17]) was above 1 µM in each case.

`COC(=O)c1nc([C@@H](NC(=O)[C@H](Cc2ccccc2)NC(=O)[C@@H](O)C(C)C)C(C)C)oc1-c1c[nH]c2ccccc12` [Example 94]: the IC50 in data set [3] (setting [18]) and in data set [10] (setting [19]) was above 1 µM throughout.

As to `COc1ccc(-c2cnc(-c3nc4oc3[C@@]35c6ccccc6NC3Oc3ccc(cc35)C[C@H](NC(=O)[C@@H](O)C(C)C)C(=O)NC4C(C)C)o2)cc1` (stereo partly drawn) [Example 95], the IC50 in [3] (setting [16]) and in data set [10] (setting [17]) was above 1 µM each time.
